From ChEMBL document CHEMBL1201862, “PubChem BioAssay data set” (2004)
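Five compound concentrations were applied to cells in 96-well plates for 48 hours; endpoints were derived by simple linear interpolation of the resulting dose-response curve. The concentration for 50% growth inhibition is given as GI50.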 Calls of active or inactive are those of the source. Cut-off read from the data, not from the text of the source: active = GI50 up to about 1.1 µM and inactive = higher.

How the values were obtained:
Assay in all cases: NCI-60 cell line screen, 48 h
NCI-H522 = system: NCI-H522
RXF 393 = system: RXF 393
HOP-62 = system: HOP-62
BT-549 = system: BT-549
HOP-92 = system: HOP-92
NCI/ADR-RES = system: NCI/ADR-RES
NCI-H226 = system: NCI-H226
NCI-H23 = system: NCI-H23
HT-29 = system: HT-29
SK-MEL-5 = system: SK-MEL-5
RPMI-8226 = system: RPMI-8226
A549 = system: A549
A498 = system: A498
UACC-62 = system: UACC-62
Malme-3M = system: Malme-3M
OVCAR-5 = system: OVCAR-5
KM12 = system: KM12
EKVX = system: EKVX
COLO 205 = system: COLO 205
MDA-N = system: MDA-N

Compound	GI50 (NCI-H522)	GI50 (RXF 393)	GI50 (HOP-62)	GI50 (BT-549)	GI50 (HOP-92)	GI50 (NCI/ADR-RES)	GI50 (NCI-H226)	GI50 (NCI-H23)	GI50 (HT-29)	GI50 (SK-MEL-5)	GI50 (RPMI-8226)	GI50 (A549)	GI50 (A498)	GI50 (UACC-62)	GI50 (Malme-3M)	GI50 (OVCAR-5)	GI50 (KM12)	GI50 (EKVX)	GI50 (COLO 205)	GI50 (MDA-N)
N=C(N)N/N=C/c1c(-c2ccc([N+](=O)[O-])cc2)nc2sccn12	2 µM (inactive)	2.55 µM (inactive)	1.67 µM (inactive)	1.82 µM (inactive)	1.9 µM (inactive)	> 100 µM (inactive)	1.75 µM (inactive)	1.71 µM (inactive)	1.53 µM (inactive)	3.23 µM (inactive)	5.27 µM (inactive)	1.78 µM (inactive)	1.73 µM (inactive)	1.87 µM (inactive)	1.95 µM (inactive)	1.7 µM (inactive)	0.759 µM (active)	1.8 µM (inactive)	0.676 µM (active)	–
O=C(CC(O)(C(F)(F)F)C(F)(F)F)c1cccs1	> 10 µM (inactive)	–	> 10 µM (inactive)	> 10 µM (inactive)	> 10 µM (inactive)	> 10 µM (inactive)	–	> 10 µM (inactive)	> 10 µM (inactive)	> 10 µM (inactive)	> 10 µM (inactive)	> 10 µM (inactive)	–	> 10 µM (inactive)	> 10 µM (inactive)	–	> 10 µM (inactive)	–	> 10 µM (inactive)	> 10 µM (inactive)
C=C(CCC(C)C1CCC2C3=C(C(=O)CC21C)C1(C)CCC(=O)[C@@H](C)C1CC3=O)C(C)C(=O)O (stereo partly specified)	45.8 µM (inactive)	18 µM (inactive)	35.3 µM (inactive)	47.3 µM (inactive)	30.8 µM (inactive)	> 100 µM (inactive)	> 100 µM (inactive)	38.9 µM (inactive)	87.7 µM (inactive)	31 µM (inactive)	–	> 100 µM (inactive)	> 100 µM (inactive)	49.5 µM (inactive)	> 100 µM (inactive)	> 100 µM (inactive)	85.5 µM (inactive)	78.7 µM (inactive)	45.1 µM (inactive)	–
CCOC1(OCC)C2C=CC1C(COS(=O)(=O)c1ccc(C)cc1)C2COS(=O)(=O)c1ccc(C)cc1 (stereo unspecified)	18.1 µM (inactive)	39.9 µM (inactive)	45.8 µM (inactive)	29.3 µM (inactive)	12.8 µM (inactive)	32 µM (inactive)	24.3 µM (inactive)	39.1 µM (inactive)	25.6 µM (inactive)	15.2 µM (inactive)	–	34.6 µM (inactive)	24 µM (inactive)	20.4 µM (inactive)	24.4 µM (inactive)	49.4 µM (inactive)	31.1 µM (inactive)	22.4 µM (inactive)	24.1 µM (inactive)	28.8 µM (inactive)
O=c1[nH]c2nc3ccccc3c(=O)n2/c1=C/c1ccc(Cl)cc1	12.6 µM (inactive)	46.5 µM (inactive)	53.7 µM (inactive)	16.9 µM (inactive)	27.4 µM (inactive)	26.2 µM (inactive)	–	25.8 µM (inactive)	–	–	82.8 µM (inactive)	> 100 µM (inactive)	–	33.3 µM (inactive)	28.9 µM (inactive)	63.5 µM (inactive)	18.4 µM (inactive)	–	38.5 µM (inactive)	22.2 µM (inactive)
CNC1C(O)C(NC)C2OC3(O)C(=O)CC(C)OC3OC2C1O (stereo unspecified)	> 100 µM (inactive)	> 100 µM (inactive)	> 100 µM (inactive)	> 100 µM (inactive)	> 100 µM (inactive)	> 100 µM (inactive)	> 100 µM (inactive)	> 100 µM (inactive)	> 100 µM (inactive)	> 100 µM (inactive)	> 100 µM (inactive)	> 100 µM (inactive)	–	> 100 µM (inactive)	–	> 100 µM (inactive)	> 100 µM (inactive)	> 100 µM (inactive)	> 100 µM (inactive)	> 100 µM (inactive)
O=C(Cl)C1=C(c2ccccc2)C1c1ccccc1 (stereo unspecified)	> 100 µM (inactive)	> 100 µM (inactive)	> 100 µM (inactive)	> 100 µM (inactive)	> 100 µM (inactive)	–	> 100 µM (inactive)	> 100 µM (inactive)	> 100 µM (inactive)	> 100 µM (inactive)	> 100 µM (inactive)	> 100 µM (inactive)	> 100 µM (inactive)	> 100 µM (inactive)	> 100 µM (inactive)	> 100 µM (inactive)	> 100 µM (inactive)	> 100 µM (inactive)	> 100 µM (inactive)	> 100 µM (inactive)
CCOC(=O)[C@H](C)OC(=O)[C@@](C)(NC(=O)c1ccccc1C(=O)OC)[C@@H]1NC=C(C(=O)OC)CS1	> 100 µM (inactive)	97.9 µM (inactive)	> 100 µM (inactive)	> 100 µM (inactive)	–	> 100 µM (inactive)	> 100 µM (inactive)	> 100 µM (inactive)	> 100 µM (inactive)	74.1 µM (inactive)	38.1 µM (inactive)	> 100 µM (inactive)	> 100 µM (inactive)	76 µM (inactive)	97.3 µM (inactive)	> 100 µM (inactive)	> 100 µM (inactive)	> 100 µM (inactive)	> 100 µM (inactive)	21.9 µM (inactive)
Cc1ccc(-n2c(C)n[nH]c2=O)cc1	> 100 µM (inactive)	> 100 µM (inactive)	> 100 µM (inactive)	> 100 µM (inactive)	> 100 µM (inactive)	> 100 µM (inactive)	–	> 100 µM (inactive)	> 100 µM (inactive)	> 100 µM (inactive)	> 100 µM (inactive)	> 100 µM (inactive)	–	> 100 µM (inactive)	–	> 100 µM (inactive)	> 100 µM (inactive)	> 100 µM (inactive)	> 100 µM (inactive)	> 100 µM (inactive)
CC12C=CC(C)(C3C(=O)C4C(C(=O)C31)C1(C)C=CC4(C)[S+]1[O-])[S+]2[O-] (stereo unspecified)	38.4 µM (inactive)	> 100 µM (inactive)	> 100 µM (inactive)	> 100 µM (inactive)	–	64.7 µM (inactive)	> 100 µM (inactive)	> 100 µM (inactive)	47.6 µM (inactive)	21.9 µM (inactive)	–	> 100 µM (inactive)	–	74 µM (inactive)	83.4 µM (inactive)	> 100 µM (inactive)	> 100 µM (inactive)	> 100 µM (inactive)	34.9 µM (inactive)	> 100 µM (inactive)
CC(C)(C)OC(=O)n1c(Cl)c(C=O)c2ccccc21	> 100 µM (inactive)	–	20.6 µM (inactive)	21.3 µM (inactive)	30.9 µM (inactive)	30.7 µM (inactive)	–	23.3 µM (inactive)	30.5 µM (inactive)	43.5 µM (inactive)	10.9 µM (inactive)	92.9 µM (inactive)	43.6 µM (inactive)	19.3 µM (inactive)	19.1 µM (inactive)	35.5 µM (inactive)	18.4 µM (inactive)	28 µM (inactive)	56.4 µM (inactive)	44.5 µM (inactive)
Cc1ccc(S(=O)(=O)c2c(O)c3ccc(O)c(C)c3oc2=O)cc1	> 100 µM (inactive)	> 100 µM (inactive)	–	> 100 µM (inactive)	> 100 µM (inactive)	> 100 µM (inactive)	> 100 µM (inactive)	> 100 µM (inactive)	> 100 µM (inactive)	> 100 µM (inactive)	> 100 µM (inactive)	> 100 µM (inactive)	–	> 100 µM (inactive)	> 100 µM (inactive)	> 100 µM (inactive)	> 100 µM (inactive)	> 100 µM (inactive)	> 100 µM (inactive)	> 100 µM (inactive)
O=c1ccc(-c2ccc(-n3ccnc3)cc2)nn1CCO	> 100 µM (inactive)	> 100 µM (inactive)	> 100 µM (inactive)	> 100 µM (inactive)	> 100 µM (inactive)	–	–	> 100 µM (inactive)	> 100 µM (inactive)	> 100 µM (inactive)	> 100 µM (inactive)	> 100 µM (inactive)	> 100 µM (inactive)	> 100 µM (inactive)	> 100 µM (inactive)	> 100 µM (inactive)	> 100 µM (inactive)	46.6 µM (inactive)	> 100 µM (inactive)	> 100 µM (inactive)
Brc1ccc(/N=N/N2CCCC2)cc1	27.4 µM (inactive)	81.7 µM (inactive)	> 100 µM (inactive)	44.6 µM (inactive)	27.2 µM (inactive)	–	> 100 µM (inactive)	45.2 µM (inactive)	> 100 µM (inactive)	27.1 µM (inactive)	51.1 µM (inactive)	74.1 µM (inactive)	41.6 µM (inactive)	> 100 µM (inactive)	> 100 µM (inactive)	> 100 µM (inactive)	70.3 µM (inactive)	66.7 µM (inactive)	> 100 µM (inactive)	64.9 µM (inactive)
COc1c2occc2cc2ccc(=O)oc12 [METHOXSALEN]	–	–	> 100 µM (inactive)	> 100 µM (inactive)	> 100 µM (inactive)	–	–	> 100 µM (inactive)	–	> 100 µM (inactive)	> 100 µM (inactive)	> 100 µM (inactive)	> 100 µM (inactive)	34.9 µM (inactive)	–	> 100 µM (inactive)	–	–	> 100 µM (inactive)	> 100 µM (inactive)
